Data taken from publication PMC9395446, “First-in-human phase 1/1b study to evaluate sitravatinib in patients with advanced solid tumors” (Investigational New Drugs, 2022).
Values joined by “and” are separate entries in the source; they are usually repeats but may differ in a detail not shown here. Equal values may be shown once. Read-outs that look alike come from different tables or passages of the source.

Assay: Plasma pharmacokinetics after single and multiple oral doses (noncompartmental analysis)
Type: in vivo, human
Settings: for Cmax / Tmax / AUC / AUC(0-t) / AUC(0-inf) / Vd/F / half-life: human, plasma; for AUC(0-t): read-out: AUClast, geometric mean (CV%); for AUC(0-inf): read-out: AUC∞, geometric mean (CV%); for Vd/F: read-out: Vz/F, geometric mean (CV%)
Procedure: In the PK lead-in period, patients received a single oral dose of sitravatinib (10–200 mg) under fasted conditions with at least 200 mL of water, followed by PK sample collection for 3–7 days, depending on emerging PK information. After the PK lead-in period, patients commenced the daily regimen planned for their cohort. Blood samples were collected pre-dose and 0.5 (for 10 mg only), 1, 2, 4, 6, 8, 12, 24, 36, 48, 72 and 168 (for 20–200 mg dose levels) h post-dose from patients following a single oral dose, and at pre-dose, 0.5, 1, 2, 4, 6, 8, 12 and 24 h post-dose following multiple oral doses for the 10–200 mg levels.
PK samples were collected after a single dose during the PK lead-in period and following multiple oral doses during the study. Plasma PK samples were assayed for quantification of sitravatinib. The lower limit of quantification was 0.05 ng/mL. PK parameters were determined using a noncompartmental analysis approach including maximum (peak) concentration (Cmax), time to reach Cmax following drug administration (tmax), area under the plasma concentration–time curves (AUCs), apparent total clearance of the drug from plasma after oral administration, apparent volume of distribution during the terminal phase after administration and terminal elimination half-life (t1/2). PD effects were examined by analyzing VEGF-A ligand and soluble (s)-VEGF-R2 levels in patients’ plasma samples collected before and after sitravatinib administration.

[1] = 200 mg QD, Cycle 1 Day 15, single patient result

## COCCNCc1ccc(-c2cc3nccc(Oc4ccc(NC(=O)C5(C(=O)Nc6ccc(F)cc6)CC5)cc4F)c3s2)nc1 [sitravatinib, Sitravatinib]
10 mg QD, Cycle 1 Day 8
  CL/F at steady state, geometric mean (CV%): 42.5 (42.8); 2 L/h
  Cav,ss, geometric mean (CV%): 9.81 (42.8); 2 ng/mL
20 mg QD, Cycle 1 Day 15
  CL/F at steady state, geometric mean (CV%): 41.2 (6.4); 3 L/h
  Cav,ss, geometric mean (CV%): 20.2 (6.4); 3 ng/mL
40 mg QD, Cycle 1 Day 15
  CL/F at steady state, geometric mean (CV%): 64.6 (156.5); 5 L/h
  Cav,ss, geometric mean (CV%): 25.8 (156.5); 5 ng/mL
80 mg QD, Cycle 1 Day 15
  CL/F at steady state, geometric mean (CV%): 65.7 (104.9); 5 L/h
  Cav,ss, geometric mean (CV%): 50.7 (104.9); 5 ng/mL
110 mg QD, Cycle 1 Day 15
  CL/F at steady state, geometric mean (CV%): 48.9 (44.5); 3 L/h
  Cav,ss, geometric mean (CV%): 93.7 (44.5); 3 ng/mL
120 mg QD
  Interpatient variability for Cmax and AUCτ,ss: ~ 60%
120 mg QD, Cycle 1 Day 15
  CL/F at steady state, geometric mean (CV%): 75.0 (59.1); 3 L/h
  Cav,ss, geometric mean (CV%): 66.7 (59.1); 3 ng/mL
150 mg QD, Cycle 1 Day 15
  CL/F at steady state, geometric mean (CV%): 68.8 (46.5); 18 L/h
  Cav,ss, geometric mean (CV%): 90.9 (46.5); 18 ng/mL
[1]
  CL/F at steady state: 48.4 (NA); 1 L/h
  Cav,ss: 172 (NA); 1 ng/mL
QD dosing
  Time by which steady-state appeared to be reached: cycle 1 day 8
oral, 10 mg, 10 mg QD, Cycle 1 Day 8, read-out: Cmax,ss, geometric mean (CV%)
  Cmax: 11.4 ng/mL
oral, 10 mg, 10 mg QD, Cycle 1 Day 8, read-out: tmax,ss, median (min–max)
  Tmax: 2 h
oral, 10 mg, single dose 10 mg, read-out: Cmax, geometric mean (CV%)
  Cmax: 3.54 ng/mL
oral, 10 mg, single dose 10 mg, read-out: tmax, median (min–max)
  Tmax: 5.03 h
oral, 20 mg, 20 mg QD, Cycle 1 Day 15, read-out: Cmax,ss, geometric mean (CV%)
  Cmax: 23.7 ng/mL
oral, 20 mg, 20 mg QD, Cycle 1 Day 15, read-out: tmax,ss, median (min–max)
  Tmax: 8.13 h
oral, 20 mg, single dose 20 mg, read-out: Cmax, geometric mean (CV%)
  Cmax: 5.71 ng/mL
oral, 20 mg, single dose 20 mg, read-out: tmax, median (min–max)
  Tmax: 8.04 h
oral, 40 mg, 40 mg QD, Cycle 1 Day 15, read-out: Cmax,ss, geometric mean (CV%)
  Cmax: 32.5 ng/mL
oral, 40 mg, 40 mg QD, Cycle 1 Day 15, read-out: tmax,ss, median (min–max)
  Tmax: 4 h
oral, 40 mg, single dose 40 mg, read-out: Cmax, geometric mean (CV%)
  Cmax: 11.8 ng/mL
oral, 40 mg, single dose 40 mg, read-out: tmax, median (min–max)
  Tmax: 4.05 h
oral, 80 mg, 80 mg QD, Cycle 1 Day 15, read-out: Cmax,ss, geometric mean (CV%)
  Cmax: 69.2 ng/mL
oral, 80 mg, 80 mg QD, Cycle 1 Day 15, read-out: tmax,ss, median (min–max)
  Tmax: 4.01 h
oral, 80 mg, single dose 80 mg, read-out: Cmax, geometric mean (CV%)
  Cmax: 31.7 ng/mL
oral, 80 mg, single dose 80 mg, read-out: tmax, median (min–max)
  Tmax: 6 h
oral, 110 mg, 110 mg QD, Cycle 1 Day 15, read-out: Cmax,ss, geometric mean (CV%)
  Cmax: 119 ng/mL
oral, 110 mg, 110 mg QD, Cycle 1 Day 15, read-out: tmax,ss, median (min–max)
  Tmax: 2 h
oral, 110 mg, single dose 110 mg, read-out: Cmax, geometric mean (CV%)
  Cmax: 49.1 ng/mL
oral, 110 mg, single dose 110 mg, read-out: tmax, median (min–max)
  Tmax: 3.02 h
oral, 120 mg, 120 mg QD, Cycle 1 Day 15, read-out: Cmax,ss, geometric mean (CV%)
  Cmax: 80.4 ng/mL
oral, 120 mg, 120 mg QD, Cycle 1 Day 15, read-out: tmax,ss, median (min–max)
  Tmax: 4 h
oral, 120 mg, single dose 120 mg, read-out: Cmax, geometric mean (CV%)
  Cmax: 23.8 ng/mL
oral, 120 mg, single dose 120 mg, read-out: tmax, median (min–max)
  Tmax: 8.87 h
oral, 150 mg, 150 mg QD, Cycle 1 Day 15, read-out: Cmax,ss, geometric mean (CV%)
  Cmax: 114 ng/mL
oral, 150 mg, 150 mg QD, Cycle 1 Day 15, read-out: tmax,ss, median (min–max)
  Tmax: 7.83 h
oral, 150 mg, single dose 150 mg, read-out: Cmax, geometric mean (CV%)
  Cmax: 69.3 ng/mL
oral, 150 mg, single dose 150 mg, read-out: tmax, median (min–max)
  Tmax: 6 h
oral, 200 mg, 200 mg QD, Cycle 1 Day 15, single patient result, read-out: Cmax,ss
  Cmax: 221 ng/mL
oral, 200 mg, 200 mg QD, Cycle 1 Day 15, single patient result, read-out: tmax,ss, median (min–max)
  Tmax: 10 h
oral, 200 mg, single dose 200 mg, read-out: Cmax, geometric mean (CV%)
  Cmax: 85 ng/mL
oral, 200 mg, single dose 200 mg, read-out: tmax, median (min–max)
  Tmax: 5.94 h
oral, 10 mg QD, Cycle 1 Day 8, read-out: AUCτ,ss, geometric mean (CV%)
  AUC: 235 ng·h/mL
oral, 20 mg QD, Cycle 1 Day 15, read-out: AUCτ,ss, geometric mean (CV%)
  AUC: 486 ng·h/mL
oral, 40 mg QD, Cycle 1 Day 15, read-out: AUCτ,ss, geometric mean (CV%)
  AUC: 619 ng·h/mL
oral, 80 mg QD, Cycle 1 Day 15, read-out: AUCτ,ss, geometric mean (CV%)
  AUC: 1220 ng·h/mL
oral, 110 mg QD, Cycle 1 Day 15, read-out: AUCτ,ss, geometric mean (CV%)
  AUC: 2250 ng·h/mL
oral, 120 mg QD, Cycle 1 Day 15, read-out: AUCτ,ss, geometric mean (CV%)
  AUC: 1600 ng·h/mL
oral, 150 mg QD, Cycle 1 Day 15, read-out: AUCτ,ss, geometric mean (CV%)
  AUC: 2180 ng·h/mL
oral, 200 mg QD, Cycle 1 Day 15, single patient result, read-out: AUCτ,ss
  AUC: 4130 ng·h/mL
oral, single dose 10 mg
  AUC(0-t): 149 ng·h/mL
  AUC(0-inf): 165 ng·h/mL
  Vd/F: 3720 L
oral, single dose 10 mg, read-out: t1/2, arithmetic mean (CV%) (converted)
  half-life: 43.6 h
oral, single dose 20 mg
  AUC(0-t): 300 ng·h/mL
  AUC(0-inf): 501 ng·h/mL
  Vd/F: 2500 L
oral, single dose 20 mg, read-out: t1/2, arithmetic mean (CV%) (converted)
  half-life: 47 h
oral, single dose 40 mg
  AUC(0-t): 509 ng·h/mL
  AUC(0-inf): 478 ng·h/mL
  Vd/F: 5610 L
oral, single dose 40 mg, read-out: t1/2, arithmetic mean (CV%) (converted)
  half-life: 46.5 h
oral, single dose 80 mg
  AUC(0-t): 1430 ng·h/mL
  AUC(0-inf): 1540 ng·h/mL
  Vd/F: 3360 L
oral, single dose 80 mg, read-out: t1/2, arithmetic mean (CV%) (converted)
  half-life: 46.2 h
oral, single dose 110 mg
  AUC(0-t): 2030 ng·h/mL
  AUC(0-inf): 2920 ng·h/mL
  Vd/F: 2410 L
oral, single dose 110 mg, read-out: t1/2, arithmetic mean (CV%) (converted)
  half-life: 44.7 h
oral, single dose 120 mg
  AUC(0-t): 1210 ng·h/mL
  AUC(0-inf): 1320 ng·h/mL
  Vd/F: 6370 L
oral, single dose 120 mg, read-out: t1/2, arithmetic mean (CV%) (converted)
  half-life: 49.3 h
oral, single dose 150 mg
  AUC(0-t): 2940 ng·h/mL
  AUC(0-inf): 3560 ng·h/mL
  Vd/F: 2510 L
oral, single dose 150 mg, read-out: t1/2, arithmetic mean (CV%) (converted)
  half-life: 42.1 h
oral, single dose 200 mg
  AUC(0-t): 3300 ng·h/mL
  AUC(0-inf): 4000 ng·h/mL
  Vd/F: 3660 L
oral, single dose 200 mg, read-out: t1/2, arithmetic mean (CV%) (converted)
  half-life: 51.5 h
po, multiple oral 10–150 mg QD, fasting, read-out: Median tmax,ss, range across dose levels
  Tmax: 2 to 8.13 h
po, single oral 10–200 mg, fasting, read-out: Median tmax, range across dose levels
  Tmax: 3.02 to 8.87 h
Single oral 10–200 mg, fasting, read-out: Arithmetic mean terminal elimination t1/2, range across dose levels
  half-life: 42.1 to 51.5 h
Multiple QD doses
  AUCτ,ss accumulation ratio, range: 2.13–8.34
  Cmax,ss accumulation ratio, range: 1.82–6.89
Single and multiple doses 10–200 mg, power model
  Dose proportionality of exposure (Cmax and AUCs): approximately dose-proportional
Single dose 10 mg
  CL/F, geometric mean (CV%): 60.5 (58.3); 3 L/h
Single dose 20 mg
  CL/F, geometric mean (CV%): 39.9 (63.4); 3 L/h
Single dose 40 mg
  CL/F, geometric mean (CV%): 83.7 (194.6); 4 L/h
Single dose 80 mg
  CL/F, geometric mean (CV%): 52.0 (104.1); 7 L/h
Single dose 110 mg
  CL/F, geometric mean (CV%): 37.6 (61.0); 3 L/h
Single dose 120 mg
  CL/F, geometric mean (CV%): 91.2 (109.5); 4 L/h
Single dose 150 mg
  CL/F, geometric mean (CV%): 42.1 (63.7); 12 L/h
Single dose 200 mg
  CL/F, geometric mean (CV%): 50.0 (126.1); 3 L/h
Steady state
  Peak to trough ratio (PTR) in plasma at steady state: 1.5–2.1 fold and 1.5- to 2.1 fold
